{"source": "patent US20200046860A1", "about": "“Systems and Methods for the Detection of Hydroxychloroquine-Mediated Cardiotoxicity” (Mayo Foundation for Medical Education and Research, priority 2018, published 2020)", "key": {"[1]": {"test_system": "cardiac myocytes", "assay": "Endomyocardial biopsy of patient on hydroxychloroquine", "assay_type": "in vivo, human", "conditions": "same patient", "experimental": "An endomyocardial biopsy was performed on the same subject. […] Amyloid was not present on special stains, including sulfated Alcian blue stain and Congo red stains (C of FIG. 4 and D of FIG. 4, respectively, ×100 original magnification)."}, "[2]": {"test_system": "heart", "text": "Planar scintigraphy (D of FIG. 3) of ^99mTc-PYP uptake allows count comparison between the heart (right) with the contralateral chest (left) on 3-hour uptake anterior planar imaging."}}, "data": [{"smiles": "CCN(CCO)CCCC(C)Nc1ccnc2cc(Cl)ccc12", "note": "(stereo not drawn) [hydroxychloroquine]", "values": [{"measurement": "hematoxylin and eosin-stained section finding", "setting": "[1]; light microscopy", "result": "marked sarcoplasmic vacuolization of cardiac myocytes"}, {"measurement": "toluidine blue-stained thick section finding", "setting": "[1]", "result": "dense sarcoplasmic inclusions"}, {"measurement": "electron microscopy finding", "setting": "[1]; in keeping with hydroxychloroquine-mediated cardiotoxicity", "result": "presence of myelinoid and curvilinear bodies"}, {"measurement": "amyloid on special stains", "setting": "[1]; sulfated Alcian blue and Congo red stains", "result": "not present"}, {"measurement": "left ventricular wall finding on echocardiogram", "setting": "[2]; human, in vivo", "result": "concentric left ventricular wall thickening"}, {"measurement": "global averaged longitudinal peak systolic strain", "setting": "[2]; patient on hydroxychloroquine for 15 years, abnormal, most preserved at the apex", "result": "−10", "unit": "%"}]}]}
